The values below come from patent publication US12364686B2, “Sphingosine 1 phosphate receptor modulators” (RECEPTOS LLC, priority 2020, dated 2025).

In one experiment the target is S1P1 (Homo sapiens, UniProt P21453). Briefly: [35S]-GTPγS binding assay, S1P1. The format is biochemical. Conditions: for Emax: control S1P, read-out: S1P1 % Efficacy. As to the method: (§1) Cell Membrane Preparations
(§2) CHO cells expressing recombinant S1P receptors were cultured 500 cm^2 culture trays and once confluent, rinsed and detached with cell-lifting buffer (10 mM HEPES, 154 mM NaCl, 6.85 mM EDTA, pH 7.4). Cells were then pelleted by centrifugation, resuspended, and homogenized in membrane preparation buffer (10 mM HEPES and 10 mM EDTA, pH 7.4) using a Polytron PT 1200E homogenizer (Kinematica, Luzern, Switzerland). Cellular proteins were pelleted by centrifugation at 48,000×g at 4° C. for 30 minutes. The resulting supernatant was discarded, and the pellet was re-suspended again in membrane preparation buffer, homogenized for a second time and then centrifuged again as described above. The final cellular protein pellet was suspended in ice cold resuspension buffer (10 mM HEPES and 0.1 mM EDTA, pH 7.4), divided into aliquots, and stored at −80° C. until use.
(§3) Binding assays for [^35S]-GTPγS were performed in 96-well non-binding surface plates with a final volume of 200 μL. The test compounds were serial diluted in DMSO and added to assay plates using a Tecan D300E digital printer with a total volume of 0.4 μL. The control sphingosine-1-phosphate (S1P) was prepared separately by preparing a 400 μM stock solution from a 100 nmol pellet of S1P in 10 mM Na2CO3 with 2% β-cyclodextrin. The serial dilution of S1P was done using complete assay buffer (20 mM HEPES, 10 mM MgCl2, 100 mM NaCl, 1 mM EDTA, 0.1% fatty acid free bovine serum albumin [BSA], and 30 μg/mL saponin, pH7.4) and transferred to wells already containing 0.4 μL DMSO. All the wells were then loaded to a total volume of 40 μL of complete assay buffer, except the non-specific binding (NSB) wells. For NSB wells, 40 µL/well of 50 μM GTPγS (Sigma Aldrich, cat #G8634, St. Louis, MO) was added to wells containing 0.4 μL of DMSO. The assay was started by the addition of 120 μL/well of CHO—S1P receptor membrane solution containing 40 μg/mL of membrane protein, 16.67 μM guanosine diphosphate (GDP; Sigma Aldrich, cat #G7127, St. Louis, MO), and 2.5 mg/mL of WGA PVT SPA beads in complete buffer. Assay plates were then sealed and incubated at room temperature with gentle agitation for 30 minutes. Next, 40 μL/well of 1 nM of [^35S]-GTPγS (PerkinElmer, cat #NEG030X250UC, Waltham, MA) in basic assay buffer (20 mM HEPES, 10 mM MgCl2, 100 mM NaCl, and 1 mM EDTA, pH7.4) was added to the assay plates to yield a final concentration of […] and the plates were further incubated for 40 minutes at room temperature with gentle agitation. The assay was terminated by centrifugation of the plates at 1000 rpm for 3 minutes using an Eppendorf 5810R centrifuge (Eppendorf, Hamburg, Germany) and G protein bound radioactivity was quantitated using a MicroBeta2 microplate scintillation counter (PerkinElmer, Waltham, MA).
On the technique in general: Binding of GTPγS marks nucleotide exchange on a G protein.

The target of the next experiment is S1P5 (Homo sapiens, UniProt Q9H228). Briefly: [35S]-GTPγS binding assay, S1P5. To be noted: membranes of CHO cells expressing recombinant S1P receptors; for Emax: control S1P, read-out: S1P5 % Efficacy. The format is biochemical. The method, then: as §1, §2, §3
Sequence of S1P5 (Q9H228 whole entry, species assumed): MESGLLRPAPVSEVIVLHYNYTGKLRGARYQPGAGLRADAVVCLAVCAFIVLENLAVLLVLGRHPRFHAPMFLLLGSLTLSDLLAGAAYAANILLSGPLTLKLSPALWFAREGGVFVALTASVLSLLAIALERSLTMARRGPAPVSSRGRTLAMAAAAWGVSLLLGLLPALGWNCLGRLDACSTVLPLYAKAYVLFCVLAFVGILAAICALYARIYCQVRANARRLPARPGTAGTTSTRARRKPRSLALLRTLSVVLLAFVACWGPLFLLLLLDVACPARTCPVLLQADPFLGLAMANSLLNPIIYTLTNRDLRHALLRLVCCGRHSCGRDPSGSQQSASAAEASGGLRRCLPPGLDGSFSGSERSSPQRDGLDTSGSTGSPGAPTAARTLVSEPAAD
The mark [1] stands for this setting: membranes of CHO cells expressing recombinant S1P receptors, [35S]-GTPγS binding.
[2] abbreviates: membranes of CHO cells expressing recombinant S1P receptors, [35S]-GTPγS binding, read-out: S1P1 EC50.

Like-named read-outs stand apart in the source and are kept apart here.

Sequence of S1P1 (P21453 whole entry, species assumed): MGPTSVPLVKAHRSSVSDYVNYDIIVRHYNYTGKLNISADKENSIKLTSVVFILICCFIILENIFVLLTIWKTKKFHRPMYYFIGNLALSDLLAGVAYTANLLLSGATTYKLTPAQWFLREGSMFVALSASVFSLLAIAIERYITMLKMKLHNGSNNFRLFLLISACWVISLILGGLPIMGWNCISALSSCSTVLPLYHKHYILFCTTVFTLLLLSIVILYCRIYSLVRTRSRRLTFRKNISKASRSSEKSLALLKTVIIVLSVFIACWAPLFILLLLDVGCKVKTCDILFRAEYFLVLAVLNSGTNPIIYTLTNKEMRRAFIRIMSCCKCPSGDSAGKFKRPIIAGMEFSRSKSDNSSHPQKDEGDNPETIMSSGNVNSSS

The term EC50 denotes the concentration that produces a half-maximal response. `CC(C)Oc1ccc(-c2nc(-c3cccc4c3CCC4=NOCCC(=O)O)no2)cc1C#N` (stereo in doubt) [Compound 7, (E)-3-(((4-(5-(3-cyano-4-isopropoxyphenyl)-1,2,4-oxadiazol-3-yl)-2,3-dihydro-1H-inden-1-ylidene)amino)oxy)propanoic acid]: the Emax at S1P1 (setting [1]) was 89%; on S1P5, 29%. The EC50 amounted to 336 nM at S1P1 (setting [2]) and 30 nM at S1P5.
For `CC(C)Oc1ccc(-c2nc(-c3cccc4c3CC/C4=N/OC(C)(C)C)no2)cc1C#N` [Compound 5, (Z)-5-(3-(1-(tert-butoxyimino)-2,3-dihydro-1H-inden-4-yl)-1,2,4-oxadiazol-5-yl)-2-isopropoxybenzonitrile], the values for the Emax on S1P1 (setting [1]) and on S1P5 were 98% and 79%, respectively. Moreover, the EC50 at S1P1 (setting [2]) is 20 nM; at S1P5, 78 nM.
As to `CC(C)Oc1ccc(-c2nc(-c3cccc4c3CC/C4=N/OCC(=O)O)no2)cc1C#N` [Compound 6, (Z)-2-(((4-(5-(3-cyano-4-isopropoxyphenyl)-1,2,4-oxadiazol-3-yl)-2,3-dihydro-1H-inden-1-ylidene)amino)oxy)acetic acid], the EC50 at S1P1 was 19 nM; on S1P5 it was greater than 2000 nM. In addition, the Emax at S1P1 (setting [1]) came to 90%.
As to `CC(C)Oc1ccc(-c2nc(-c3cccc4c3CC/C4=N/OCCN(C)C)no2)cc1C#N` [Compound 8], the figures for the Emax at S1P1 (setting [1]) and on S1P5 were 90% and 64%, respectively. For the same compound, the EC50 stood at 8 nM at S1P1 (setting [2]) and 15 nM on S1P5.
The matching figures for `CC(C)Oc1ccc(-c2nc(-c3cccc4c3CC/C4=N/O)no2)cc1C#N` [Compound 10, (Z)-5-(3-(1-(hydroxyimino)-2,3-dihydro-1H-inden-4-yl)-1,2,4-oxadiazol-5-yl)-2-isopropoxybenzonitrile]: 97%, 58%, 4 nM and 6 nM.
The matching figures for `CC(C)Oc1ccc(-c2nc(-c3cccc4c3CC/C4=N/OCCCC(=O)O)no2)cc1C#N` [Compound 11, (Z)-4-(((4-(5-(3-cyano-4-isopropoxyphenyl)-1,2,4-oxadiazol-3-yl)-2,3-dihydro-1H-inden-1-ylidene)amino)oxy)butanoic acid]: 85%, 85%, 6 nM and 80 nM.
